According to paper doi:10.1101/2025.07.08.663693v1 (biorxiv, 2025):

How the values were obtained:
hSLIT2-His = target: T1, hSLIT2-His (Homo sapiens, UniProt O94813); test: TRIC/MST dose response; type: binding
T1 sequence (O94813 31-1529): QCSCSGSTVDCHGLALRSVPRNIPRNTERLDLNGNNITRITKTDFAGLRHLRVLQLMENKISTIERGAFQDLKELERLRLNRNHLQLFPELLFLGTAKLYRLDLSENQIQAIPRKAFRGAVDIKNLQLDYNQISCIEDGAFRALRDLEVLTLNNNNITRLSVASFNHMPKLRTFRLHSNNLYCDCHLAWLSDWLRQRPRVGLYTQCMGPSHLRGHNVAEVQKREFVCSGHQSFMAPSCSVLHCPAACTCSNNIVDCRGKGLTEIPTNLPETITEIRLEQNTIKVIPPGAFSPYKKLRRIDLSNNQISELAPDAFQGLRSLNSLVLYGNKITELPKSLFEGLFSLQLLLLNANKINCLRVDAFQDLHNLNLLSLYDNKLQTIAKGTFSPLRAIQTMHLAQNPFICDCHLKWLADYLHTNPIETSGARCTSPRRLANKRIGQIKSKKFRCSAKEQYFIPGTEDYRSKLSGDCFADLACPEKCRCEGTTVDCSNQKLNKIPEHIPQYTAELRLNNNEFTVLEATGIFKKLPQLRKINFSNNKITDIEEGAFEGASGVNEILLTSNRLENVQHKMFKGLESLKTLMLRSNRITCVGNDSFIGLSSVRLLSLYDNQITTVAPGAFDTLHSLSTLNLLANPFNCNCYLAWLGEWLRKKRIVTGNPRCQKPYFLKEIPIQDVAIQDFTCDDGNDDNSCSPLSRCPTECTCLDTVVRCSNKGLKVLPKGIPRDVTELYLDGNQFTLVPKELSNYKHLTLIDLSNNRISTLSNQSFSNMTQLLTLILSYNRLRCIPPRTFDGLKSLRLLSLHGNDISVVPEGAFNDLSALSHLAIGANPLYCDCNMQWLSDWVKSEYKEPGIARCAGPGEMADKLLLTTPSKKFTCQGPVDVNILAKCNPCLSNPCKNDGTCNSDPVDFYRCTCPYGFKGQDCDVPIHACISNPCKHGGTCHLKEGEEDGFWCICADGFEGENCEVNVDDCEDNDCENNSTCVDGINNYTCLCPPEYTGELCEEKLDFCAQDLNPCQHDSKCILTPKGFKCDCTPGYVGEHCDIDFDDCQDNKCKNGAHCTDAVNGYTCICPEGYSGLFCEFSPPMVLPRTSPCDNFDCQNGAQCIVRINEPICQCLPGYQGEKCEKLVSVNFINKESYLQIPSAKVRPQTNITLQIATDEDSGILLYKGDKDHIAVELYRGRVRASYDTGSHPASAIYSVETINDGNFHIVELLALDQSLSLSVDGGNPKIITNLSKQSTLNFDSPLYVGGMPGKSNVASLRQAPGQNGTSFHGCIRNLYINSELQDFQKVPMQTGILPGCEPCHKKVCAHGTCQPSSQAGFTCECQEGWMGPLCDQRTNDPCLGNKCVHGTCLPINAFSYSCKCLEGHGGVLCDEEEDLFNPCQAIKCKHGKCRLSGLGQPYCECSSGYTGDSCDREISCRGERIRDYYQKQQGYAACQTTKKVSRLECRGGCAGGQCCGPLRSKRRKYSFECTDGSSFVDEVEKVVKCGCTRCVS

SLIT2/ROBO1 = target: T2, SLIT2/ROBO1 (Homo sapiens, UniProt O94813); test: TR-FRET SLIT2/ROBO1 interaction inhibition; type: binding
T2 sequence (O94813 31-1529): T1 sequence (O94813 31-1529)
T2 sequence (Q9Y6N7 26-897 partner limits assumed): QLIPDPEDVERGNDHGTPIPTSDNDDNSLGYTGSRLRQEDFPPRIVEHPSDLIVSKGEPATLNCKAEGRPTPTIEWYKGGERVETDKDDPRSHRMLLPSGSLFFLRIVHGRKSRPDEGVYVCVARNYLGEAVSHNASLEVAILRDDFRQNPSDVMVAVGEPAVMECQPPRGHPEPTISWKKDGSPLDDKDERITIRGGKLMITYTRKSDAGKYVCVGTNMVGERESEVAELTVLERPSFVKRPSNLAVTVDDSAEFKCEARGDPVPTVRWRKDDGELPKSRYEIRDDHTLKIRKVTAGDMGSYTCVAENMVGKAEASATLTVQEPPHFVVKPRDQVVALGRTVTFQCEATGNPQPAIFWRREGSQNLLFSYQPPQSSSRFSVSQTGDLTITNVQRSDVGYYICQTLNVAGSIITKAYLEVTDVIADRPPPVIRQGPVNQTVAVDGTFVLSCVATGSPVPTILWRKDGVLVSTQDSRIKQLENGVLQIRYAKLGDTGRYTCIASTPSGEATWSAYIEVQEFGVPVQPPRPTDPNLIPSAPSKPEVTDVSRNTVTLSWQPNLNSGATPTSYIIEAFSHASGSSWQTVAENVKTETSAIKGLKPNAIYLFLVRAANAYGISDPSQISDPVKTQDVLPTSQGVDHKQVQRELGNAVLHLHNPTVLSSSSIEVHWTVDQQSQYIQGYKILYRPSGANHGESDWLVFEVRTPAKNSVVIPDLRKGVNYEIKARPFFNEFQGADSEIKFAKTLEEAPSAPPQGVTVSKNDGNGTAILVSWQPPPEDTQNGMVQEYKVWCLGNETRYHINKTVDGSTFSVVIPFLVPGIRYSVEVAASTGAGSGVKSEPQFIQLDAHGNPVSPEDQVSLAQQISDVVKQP

With `C=C(c1ccc(C(=O)O)cc1)c1cc2c(cc1C)C(C)(C)CCC2(C)C` [bexarotene] the Kd (hSLIT2-His) was 2.62 µM and the IC50 (SLIT2/ROBO1) was 22.8 ± 3.85 µM.
